Measured values taken from patent US10653687B2, “Methods and pharmaceutical compostions for treating rhabdomyolysis” (INSERM (INSTITUT NATIONAL DE LA SANTE ET DE LA RECHERCHE …, priority 2015, dated 2020).
“Also recorded” adds a separate entry of the source.

Columns and labels:
TLR9 = molecular target: T1, TLR9 (Homo sapiens, UniProt Q9NR96); assay: IL-6 secretion of myoblasts stimulated with CpG-A (TLR9 ligand) after pre-treatment with TLR9 antagonists; assay type: cell-based; details: myoblasts pre-treated with the substance, then stimulated with CpG-A
T1 construct: endogenous in cells; host or cells: primary human CD56+ myoblasts from muscle biopsies
T1 sequence (Q9NR96 26-1032): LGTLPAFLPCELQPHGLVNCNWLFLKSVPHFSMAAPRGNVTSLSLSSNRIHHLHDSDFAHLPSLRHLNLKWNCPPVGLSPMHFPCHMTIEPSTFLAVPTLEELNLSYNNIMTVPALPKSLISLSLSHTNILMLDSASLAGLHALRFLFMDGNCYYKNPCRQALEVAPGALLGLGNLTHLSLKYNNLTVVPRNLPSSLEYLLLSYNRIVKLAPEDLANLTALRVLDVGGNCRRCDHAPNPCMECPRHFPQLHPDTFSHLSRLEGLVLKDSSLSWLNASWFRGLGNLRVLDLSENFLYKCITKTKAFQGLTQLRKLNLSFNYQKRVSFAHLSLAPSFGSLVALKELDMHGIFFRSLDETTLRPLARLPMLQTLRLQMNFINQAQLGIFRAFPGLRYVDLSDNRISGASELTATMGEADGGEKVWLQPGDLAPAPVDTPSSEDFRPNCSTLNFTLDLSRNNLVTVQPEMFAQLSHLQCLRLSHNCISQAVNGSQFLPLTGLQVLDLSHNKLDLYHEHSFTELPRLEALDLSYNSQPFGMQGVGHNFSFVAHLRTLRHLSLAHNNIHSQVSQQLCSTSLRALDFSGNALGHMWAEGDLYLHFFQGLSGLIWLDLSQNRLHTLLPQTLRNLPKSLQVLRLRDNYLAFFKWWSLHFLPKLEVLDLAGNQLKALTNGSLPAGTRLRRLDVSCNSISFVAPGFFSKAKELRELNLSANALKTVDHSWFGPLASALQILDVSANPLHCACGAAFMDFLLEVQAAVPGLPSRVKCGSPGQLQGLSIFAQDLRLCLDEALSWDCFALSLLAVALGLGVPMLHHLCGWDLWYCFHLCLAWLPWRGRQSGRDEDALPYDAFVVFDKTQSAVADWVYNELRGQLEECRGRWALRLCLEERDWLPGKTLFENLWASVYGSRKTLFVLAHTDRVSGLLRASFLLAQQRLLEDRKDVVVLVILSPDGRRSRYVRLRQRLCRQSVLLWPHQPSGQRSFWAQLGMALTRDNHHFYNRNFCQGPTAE
Description: Human primary myoblasts were isolated and grown as described. CD56+ myoblasts were isolated by flow cytometry cell sorting using an anti CD56-APC conjugated antibody (e. Biosciences) and routinely maintained in F10 medium supplemented with 20% Fetal Bovine Serum (FBS).
After 12 hours of TLR stimulation of DC at 37° C. in humidified air containing 5% CO2, the concentrations of human IL-8, IL-6, tumor necrosis factor (TNF)-α, IL-1β, IL-10, IL-4, Monocyte Chemoattractant Protein-1 (MCP-1), RANTES (Regulated on Activation, Normal T cell Expressed and Secreted), and Macrophage Inflammatory Protein (MIP)-1-α and β in the culture supernatants were measured with a human cytokine Cytometric Bead Assay (CBA) kit (BD Biosciences, San Jose, Calif.) in accordance with the manufacturer's instructions. In brief, 50 μL of supernatant was mixed with 50 μL of mixed capture beads, and a standard curve was generated. After 3 hours of incubation at room temperature, the samples were washed and suspended in Phosphate-Buffered Saline (PBS) and then analyzed by flow cytometry (ARIA II; BD Biosciences) with CBA Analysis Software (FCAP Array version 3.0; Soft Flow, St Louis Park, Minn.). The results are expressed in picograms per milliliter. […]

myoblasts = assay: Intracellular calcium mobilization in myoblasts (Fluo-4 Assay); assay type: cell-based, human; details: for intracellular calcium mobilization in patient myoblasts stimulated with CpG-A: pre-treatment, concentration not given; for intracellular calcium on stimulation with the substance: control and patient myoblasts, live imaging
Description: Intracellular calcium mobilization was measured in myoblasts using the Fluo-4 Assay from Invitrogen according to the manufacturer's directions and as defined previously. Cells were loaded with 1 μm Fluo-4 for 30 min at 37° C. in 5% CO2/95% O2, as described previously […]. The plates were then transferred to a temperature-controlled stage (Harvard Apparatus, Holliston, Mass., USA) on an Olympus IX-70 inverted microscope. Cultures were visualized using a 40×0.7 numerical aperture fluorite water-immersion objective (TC-SP8 Leica).
To evaluate the link between muscle damage and inflammation, we explored TLR ligand involvement in the control of intracellular Ca2+ dynamics, as its intracellular increase is the hallmark of rhabdomyolysis. The levels of intracellular Ca2+ recorded using live imaging of resting cells were equivalent among control and patient cells. […] This effect observed with patient cells was specific for TLR9 ligands since no response was observed following exposure to LPS or Imiquimod in both patient and control cells. Pre-treatment with 10 μM of chloroquine or ODN-i abolished intracellular calcium mobilization in patient cells in presence of CpG-A completely. […] To obtain additional evidence for the role of inflammation in muscle damage, we measured ATP production in myoblasts following stimulation with CpG-A; we found an impairment of ATP production following stimulation with inflammatory stimuli in patient cells compared to control. To confirm the deleterious effect of TLR9 ligands in patient myoblasts, we incubated myoblasts with increasing doses of CpG-A and measured cellular mortality at different time point as accessed by the viability assay. Myoblasts from patients were exclusively sensitive to TLR9 ligands.

[1] = Treatment of lipin-1 patients with hydroxychloroquine: muscle pain and serum cytokines; assay type: in vivo, human; details: two patients, 6 mg/Kg/day, at three months of treatment
Description: Two patients were treated with hydroxychloroquine (Plaquenil®, 6 mg/Kg/day).

Row | SMILES | secretion of IL-6 after stimulation by CpG-A (TLR9) | intracellular calcium mobilization in patient myoblasts stimulated with CpG-A (myoblasts) | intracellular calcium on stimulation with the substance (myoblasts) | further results
1 | CCN(CC)CCCC(C)Nc1ccnc2cc(Cl)ccc12 (stereo not shown) [chloroquine] | attenuate or abolish; also recorded: abolish | abolish |  | intracellular calcium mobilization in presence of CpG-A (myoblasts; patient cells (myoblasts), pre-treatment with 10 μM): abolished
2 | O=C1CN(/N=C/c2ccc(-c3ccc([N+](=O)[O-])cc3)o2)C(O)=N1 [dantrium] |  |  |  | elevation of intracellular calcium (myoblasts; patient myoblasts, chelation of intracellular calcium): inhibited
3 | C[C@H](CCC(=O)O)C[C@H](C)C[C@H](C)C(=O)/C=C(\O)[C@H](C)C[C@H](C)C/C=C/[C@@H](C)[C@@H](O)[C@@H](C)[C@@H](O)C[C@@H]1CC[C@@](C)([C@H]2CC[C@@](C)([C@@H](C)O)O2)O1 [ionomycin] |  |  | induced a rapid calcium flux | 
4 | COc1cc(NC(C)CCCN)c2ncccc2c1 (stereo not shown) [primaquine] | attenuate or abolish; also recorded: abolish | abolish |  | 
5 | CCN(CCO)CCCC(C)Nc1ccnc2cc(Cl)ccc12 (stereo not shown) [hydroxychloroquine] |  |  |  | muscle pain [1]: decrease; pro-inflammatory cytokines (IL-8, RANTES, MCP-1) in sera [1]: dramatic decrease
6 | CC(C)Cn1cnc2c(N)nc3ccccc3c21 [Imiquimod, imiquimod] |  |  | no response | 
